Measurements published in patent US10588317B2, “Isoxazoline-substituted benzamides and analogues as insecticides” (priority 2015, dated 2020).

Assays:
Format in all cases: in vivo
Diabrotica balteata = Diabrotica balteata (corn root worm), sprayed maize sprouts; settings: 96 h, application rate 200 ppm, L2 larvae, 4 days after infestation, read-out: effect in at least one of the two categories (mortality or growth inhibition)
Outline: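 Read-out at 4 days post-infestation: mortality and growth inhibition relative to untreated samples. Test solutions (200 ppm, from DMSO stocks) were sprayed onto agar-held maize sprouts, which after drying received 6–10 L2 larvae per well.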

Euschistus heros = Euschistus heros (neotropical brown stink bug), sprayed soybean leaves; settings: 120 h, application rate 200 ppm, N2 nymphs, 5 days after infestation, read-out: effect in at least one of the two categories (mortality or growth inhibition)
Outline: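 Scored 5 days post-infestation versus untreated controls, for both mortality and growth inhibition: N2 nymphs placed on agar-mounted soybean leaves previously sprayed at 200 ppm with aqueous test solutions from DMSO stocks and left to dry.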

Myzus persicae = Myzus persicae (green peach aphid): feeding/contact activity; settings: 144 h, application rate 200 ppm, aphid population of mixed ages, 6 days after infestation, read-out: mortality
Protocol: Sunflower leaf discs were placed onto agar in a 24-well microtiter plate and sprayed with aqueous test solutions prepared from 10'000 ppm DMSO stock solutions. After drying, the leaf discs were infested with an aphid population of mixed ages. The samples were assessed for mortality 6 days after infestation.

Plutella xylostella = Plutella xylostella (diamond back moth), artificial diet; settings: 120 h, application rate 200 ppm, L2 larvae, 5 days after infestation, read-out: effect in at least one of the two categories (mortality or growth inhibition)
Outline: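 L2 larvae (10-15 per well) fed on compound-treated, dried artificial diet; test solutions diluted in water from 10'000 ppm DMSO stocks. Readout 5 days post-infestation as mortality or growth inhibition versus untreated diet, with at least 80% effect at 200 ppm as threshold.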

Spodoptera littoralis = Spodoptera littoralis (Egyptian cotton leaf worm), sprayed cotton leaf discs; settings: foliar, 72 h, application rate 200 ppm, L1 larvae, 3 days after infestation, read-out: control (mortality, anti-feeding effect, growth inhibition)
Outline: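 Five first-instar larvae placed on dried cotton leaf discs (on agar) previously sprayed with aqueous dilutions of 10'000 ppm DMSO stocks. Scored at 3 days against untreated discs for mortality, feeding inhibition and growth inhibition; any category above untreated counts as control.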

Tetranychus urticae = Tetranychus urticae (two-spotted spider mite): feeding/contact activity; settings: 192 h, application rate 200 ppm, mixed population (mobile stages), 8 days after infestation, read-out: mortality
Protocol: Bean leaf discs on agar in 24-well microtiter plates were sprayed with aqueous test solutions prepared from 10'000 ppm DMSO stock solutions. After drying the leaf discs were infested with a mite population of mixed ages. The samples were assessed for mortality on mixed population (mobile stages) 8 days after infestation.

Thrips tabaci = Thrips tabaci (onion thrips): feeding/contact activity; settings: 144 h, application rate 200 ppm, Thrips population of mixed ages, 6 days after infestation, read-out: mortality
Protocol: Sunflower leaf discs were placed on agar in 24-well microtiter plates and sprayed with aqueous test solutions prepared from 10'000 ppm DMSO stock solutions. After drying the leaf discs were infested with a Thrips population of mixed ages. The samples were assessed for mortality 6 days after infestation.

Cc1cc(C2=NO[C@@](c3cc(Cl)c(F)c(Cl)c3)(C(F)(F)F)C2)ccc1C(=O)NC1CON(S(=O)(=O)N(C)S(=O)(=O)N(C)C)C1 (stereo partly drawn) [Compound A79, 4-[(5S)-5-(3,5-dichloro-4-fluoro-phenyl)-5-(trifluoromethyl)-4H-isoxazol-3-yl]-N-[2-[dimethylsulfamoyl(methyl)sulfamoyl]isoxazolidin-4-yl]-2-methyl-benzamide]
≥ 80%: percent effect (mortality or growth inhibition) at 200 ppm (Diabrotica balteata) | percent effect (mortality or growth inhibition) at 200 ppm (Euschistus heros) | mortality at 200 ppm (Myzus persicae) | percent effect (mortality or growth inhibition) at 200 ppm (Plutella xylostella) | mortality at 200 ppm (Spodoptera littoralis) | mortality at 200 ppm (Tetranychus urticae) | mortality at 200 ppm (Thrips tabaci)

Cc1cc(C2=NO[C@@](c3cc(Cl)c(F)c(Cl)c3)(C(F)(F)F)C2)ccc1C(=O)NC1CON(S(=O)(=O)C(C)C)C1 (stereo partly drawn) [Compound A17]
≥ 80%: percent effect (mortality or growth inhibition) at 200 ppm (Diabrotica balteata) | percent effect (mortality or growth inhibition) at 200 ppm (Euschistus heros) | mortality at 200 ppm (Myzus persicae) | percent effect (mortality or growth inhibition) at 200 ppm (Plutella xylostella) | mortality at 200 ppm (Spodoptera littoralis) | mortality at 200 ppm (Tetranychus urticae) | mortality at 200 ppm (Thrips tabaci)

Cc1cc(C2=NO[C@@](c3cc(Cl)c(F)c(Cl)c3)(C(F)(F)F)C2)ccc1C(=O)N[C@H]1CON(S(=O)(=O)N2CCC2)C1 [Compound A148]
≥ 80%: percent effect (mortality or growth inhibition) at 200 ppm (Diabrotica balteata) | percent effect (mortality or growth inhibition) at 200 ppm (Euschistus heros) | mortality at 200 ppm (Myzus persicae) | percent effect (mortality or growth inhibition) at 200 ppm (Plutella xylostella) | mortality at 200 ppm (Spodoptera littoralis) | mortality at 200 ppm (Tetranychus urticae) | mortality at 200 ppm (Thrips tabaci)

Cc1cc(C2=NO[C@](c3cc(Cl)c(F)c(Cl)c3)(C(F)(F)F)C2)ccc1C(=O)N[C@@H]1CON(S(=O)(=O)C(F)(F)F)C1 [Compound A223, 4-[(5R)-5-(3,5-dichloro-4-fluorophenyl)-5-(trifluoromethyl)-4H-1,2-oxazol-3-yl]-2-methyl-N-[(4S)-2-(trifluoromethylsulfonyl)-1,2-oxazolidin-4-yl]benzamide]
≥ 80%: percent effect (mortality or growth inhibition) at 200 ppm (Diabrotica balteata) | percent effect (mortality or growth inhibition) at 200 ppm (Euschistus heros) | mortality at 200 ppm (Myzus persicae) | percent effect (mortality or growth inhibition) at 200 ppm (Plutella xylostella) | mortality at 200 ppm (Spodoptera littoralis) | mortality at 200 ppm (Tetranychus urticae) | mortality at 200 ppm (Thrips tabaci)

Cc1cc(C2=NO[C@@](c3cc(Cl)c(F)c(Cl)c3)(C(F)(F)F)C2)ccc1C(=O)N[C@@H]1CON(S(=O)(=O)N2CCOCC2)C1 [Compound A188, 4-[(5S)-5-(3,5-dichloro-4-fluorophenyl)-5-(trifluoromethyl)-4H-1,2-oxazol-3-yl]-2-methyl-N-[(4S)-2-morpholin-4-ylsulfonyl-1,2-oxazolidin-4-yl]benzamide]
≥ 80%: percent effect (mortality or growth inhibition) at 200 ppm (Diabrotica balteata) | percent effect (mortality or growth inhibition) at 200 ppm (Euschistus heros) | mortality at 200 ppm (Myzus persicae) | percent effect (mortality or growth inhibition) at 200 ppm (Plutella xylostella) | mortality at 200 ppm (Spodoptera littoralis) | mortality at 200 ppm (Tetranychus urticae) | mortality at 200 ppm (Thrips tabaci)

C#CCN(C(=O)OC(C)(C)C)S(=O)(=O)N1C[C@@H](NC(=O)c2ccc(C3=NO[C@@](c4cc(Cl)cc(Cl)c4)(C(F)(F)F)C3)cc2Cl)CO1 [Compound A152]
≥ 80%: percent effect (mortality or growth inhibition) at 200 ppm (Diabrotica balteata) | percent effect (mortality or growth inhibition) at 200 ppm (Euschistus heros) | mortality at 200 ppm (Myzus persicae) | percent effect (mortality or growth inhibition) at 200 ppm (Plutella xylostella) | mortality at 200 ppm (Spodoptera littoralis) | mortality at 200 ppm (Tetranychus urticae) | mortality at 200 ppm (Thrips tabaci)
